Measured values: patent publication US20240197729A1, “ALK-5 Inhibitors and Uses Thereof” (Sumitomo Pharma Oncology, Inc., priority 2021, published 2024)

Assays:
[1] = system: TGF-β1-induced SMAD signaling pathway; assay: RD SMAD reporter (RDSR) assay; assay type: cell-based; details: Homo sapiens; 200 pg/ml rhTGF-beta1, 24 h
Description: TGF-beta (also referred to as TGF-β1) is a multifunctional, highly conserved cytokine with many key functions in development, cell growth and apoptosis, and plays a key role in the tissue repair response and functions as a potent immune modulator. TGF-β signaling is triggered when the activated TGF-β homodimer binds to the TGF-β receptor 2, which in turn leads to the recruitment and phosphorylation of TGF-β receptor 1 (ALK5). Activated TGF-β receptor 1 phosphorylates the signal transduction molecules SMAD2 and SMAD3. These bind to common mediator SMAD4 and translocate to the nucleus where they bind to short conserved DNA sequences called the SMAD binding element and induce the transcription of various target genes.
A stable cellular reporter, the RD SMAD reporter (RDSR), was generated to test the ability of certain compounds disclosed herein to inhibit the canonical TGF-β1-induced SMAD signaling pathway in a cellular context. The RD SMAD reporter (RDSR) cell line was generated by stably integrating the SMAD cellular reporter plasmid (Promega, pGL4.48[luc2P/SBE/Hygro]) into the human rhabdomyosarcoma cell line RD (ATCC, CCL-136). Once SMAD signaling was triggered with, for example, the addition of TGF-beta1, receptor-activated SMADs bind the SMAD binding elements (SBEs) leading to the expression of intracellular luciferase.
The rhabdomyosarcoma line RD (ATCC, CCL-136) was transfected with a SMAD reporter vector (Promega, E3671) and a polyclonal stable cell line was selected using hygromycin B. The transfected vector contained three copies of a Smad-binding element (SBE) that drives transcription of the luciferase reporter gene luc2P (Photinus pyralis). luc2P is a synthetically-derived luciferase sequence with humanized codon optimization that is designed for high expression and reduced anomalous transcription. The luc2P gene contains hPEST, a protein destabilization sequence, which allows luc2P protein levels to respond more quickly than those of luc2 to induction of transcription. The intracellular luciferase is quantified by the addition of equal volume (100 μl) of ONE-GLO substrate (Promega, E6120) and read within ten minutes on the Envision plate reader. The stable RDSR cell line was tested by evaluating the response to human TGF-beta1 (R&D Systems, 7754-BH-005) as well as myostatin (R&D Systems, 788-G8-010/CF) in a concentration-dependent manner after twenty-four hours of stimulation. […] For compound evaluation, the tool compounds (vactosertib and PF-06952229 (a TGFβR1 inhibitor available from MedChem Express HY-136244) were included as positive controls) or test compounds were incubated with cells for one hour at 37° C. then stimulated with 200 pg/ml rhTGF-beta1 for twenty-four hours. The activity of the reporter was determined with the addition of ONE-GLO (Promega) substrate, and luminescence counts were collected on the Envision plate reader (Perkin Elmer). The IC50 or EC50 was calculated using nonlinear regression curve fitting with graph pad prism software.
A comparative RDSR analysis was performed using IC50 values for selected compounds and standards obtained using the RDSR assay protocol described in Example 3.
The tool compounds vactosertib (an ALK5 inhibitor sourced from MedChem Express, HY-19928) and PF-06952229 (a TGFβR1 inhibitor) were included in the study as comparator compounds. Selected example compounds or comparator compounds were incubated with cells for one hour at 37° C. then stimulated with 200 pg/ml rhTGF-beta1 for twenty-four hours. The activity of the reporter was determined by adding ONE-GLO (Promega) substrate, and collecting luminescence counts on the Envision plate reader (Perkin Elmer).
Each of the example compounds and comparator compounds were tested at drug concentrations of from 20 micromolar to 1 nanomolar, and the IC50 value for each was calculated using Graph Pad Prism software. DMSO was used as a negative control and all wells contained normalized DMSO concentrations. […]

ALK5 = molecular target: T1, ALK5 (Homo sapiens, UniProt P36897); assay: LanthaScreen Eu Kinase Binding Assay, ALK5; details: 10-point titration, read-out: Kinase Inhibition: ALK5 IC50 (Lantha)
T1 sequence (P36897 34-503): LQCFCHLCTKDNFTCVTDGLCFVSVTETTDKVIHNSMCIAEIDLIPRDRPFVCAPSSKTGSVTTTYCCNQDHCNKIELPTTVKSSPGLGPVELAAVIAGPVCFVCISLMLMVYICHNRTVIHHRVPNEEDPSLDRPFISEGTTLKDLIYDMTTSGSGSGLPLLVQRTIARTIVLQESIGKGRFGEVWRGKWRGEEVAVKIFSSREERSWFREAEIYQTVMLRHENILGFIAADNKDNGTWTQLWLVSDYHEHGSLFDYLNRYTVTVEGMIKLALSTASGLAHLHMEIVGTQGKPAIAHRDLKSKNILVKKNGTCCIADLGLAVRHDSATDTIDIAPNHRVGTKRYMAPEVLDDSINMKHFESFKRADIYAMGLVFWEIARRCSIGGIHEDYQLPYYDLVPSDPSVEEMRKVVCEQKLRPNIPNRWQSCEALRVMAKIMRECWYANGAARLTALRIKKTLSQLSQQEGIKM
Procedure: Selected compounds of the present disclosure were assayed for inhibitory activity against ALK5 and ALK2. Activity determinations and selectivity were conducted by Thermo Fisher Scientific SelectScreen™ Biochemical Kinase Profiling Service using their LanthaScreen™ Eu Kinase Binding Assay Screening.
Binding of an Alexa Fluor™ conjugate or “tracer” to a kinase is detected by addition of a Eu-labeled anti-tag antibody. Binding of the tracer and antibody to a kinase results in a high degree of FRET, whereas displacement of the tracer with a kinase inhibitor results in a loss of FRET. This assay is carried out by mixing the compound tested with the reagents and reading; no development step is required.
Life Technologies' Kinase Tracers are based on ATP-competitive kinase inhibitors, making them suitable for detection of any compounds that bind to the ATP site. Inhibitors that bind the ATP site include both Type I kinase inhibitors, which bind solely to the ATP site, and Type II inhibitors (e.g., Gleevec®/Imatinib, Sorafenib, BIRB-796), which bind to both the ATP site and a second site often referred to as the allosteric site.
The test compounds were screened in 1% DMSO (final) in the well. For 10-point titrations, 3-fold serial dilutions were conducted from the starting concentration (see Table 2 below).
All Kinase/Antibody Mixtures were diluted to a 2× working concentration in the specified kinase buffer. The 4× AlexaFluor labeled Tracer was prepared in Kinase Buffer.
• Bar-coded, low volume, white, 384-well plate (Greiner Cat. #784207) • 1. 160 nL—100× Test Compound in 100% DMSO • 2. 3.84 μL—Kinase Buffer • 3. 8.0 μL—2× Kinase/Antibody Mixture • 4. 4.0 μL—4× Tracer • 5. 30-second plate shake • 6. 60-minute incubation at room temperature • 7. Read on fluorescence plate reader and analysis of the data
The following controls were made for each individual kinase and were located on the same plate as the kinase:
100% Displacement Control: The minimum Emission Ratio was established by the 100% Displacement Control wells, which contained the highest concentration of the known inhibitor used in that assay.
Known Inhibitor: A known inhibitor control standard curve, 10-point titration, was run for each individual kinase on the same plate as the kinase to ensure the inhibitor was displaced within an expected IC50 range previously determined.
The following equations were used for each set of data points: […]
Data generated were plotted using the graphing software XLfit from IDBS. The dose response curve was curve fit to model number 205.

A549 lung fibroblasts = assay: Epithelial to mesenchymal transition gene expression in A549; assay type: cell-based; details: 5 ng/ml TGF-beta1, 48 h, up to 5 micromolar
Procedure: To evaluate whether Compounds 01 and 04 could inhibit epithelial to mesenchymal transition (EMT), an in vitro model using A549 lung fibroblasts was utilized. A549 cells were purchased from ATCC (CCL-185), and grown in RPMI media supplemented with 10 percent fetal bovine serum (FBS). On the day of the experiment, ten thousand A549 cells were seeded in eighty microliters total volume into a flat, tissue culture coated, ninety-six-well plate. Drugs, including positive control compounds vactosertib, PF-06952229 and LY3200882, were added in an eight point, one to three dilution series with the highest concentration of each drug being five micromolar, bringing the total volume of each well to ninety microliters. DMSO, which served to dissolve the 10 millimolar stock solution of each drug, was normalized across all wells After one hour of drug pretreatment, recombinant human TGF-beta1 was added to a final concentration of five nanograms per milliliter, bringing the volume to one hundred microliters. Recombinant human TGF-beta 1 was purchased from R&D Systems (7754-BH-005) and its stock solution was prepared according to manufacturer's instructions and diluted in RPMI media supplemented with 10% FBS. The ninety-six well plate with one hundred microliter volume was incubated at 37° C. at 5% CO2 for forty-eight hours. At the end of the incubation period, gene expression levels of various EMT markers were assessed using a custom designed QuantiGene Plex Gene Expression Assay. The genes chosen were CDH1 (E-cadherin), CDH2 (N-Cadherin), SNAI1 (Snail), SNAI2 (Slug), VIM (Vimentin), SPARC, GALNT6, CTNNB1 (beta-catenin), TGFB1, and MAML3.
Briefly, cell lysate was prepared using the QuantiGene Sample Processing Kit —Cultured Cells (QS0100) in the ninety-six well plate. Cell lysates were then subjected to bead hybridization, multiple probe hybridization steps and SAPE labeling following manufacturer's instruction. The plate was read on a Luminex MAGPIX instrument.

JAK signaling = assay: JAK selectivity assay, HEK blue IL-12 reporter; assay type: cell-based; details: HEK-Blue, 24 h, 12.5 ng/ml IL-12, 24 h
Procedure: The cells were purchased from Invivogen (Catalog Nr: hkb-il12) and maintained according to vendor instructions. On the day of the experiment, cells were harvested by repeated tapping of the flask to shake loose the cells attached to the bottom of the flask. Then, cells were harvested, washed and resuspended in DMEM media supplemented with 10% fetal calf serum. 30 Microliters of cell suspension was seeded into a 384-well tissue culture-coated plate containing approximately 10,000 total cells. […] Using the ECHO “Dose Response” software, the test compound was added in duplicate wells with a 3-fold dilution curve. DMSO was back-filled to normalize the DMSO across all wells. […] After 30 minutes of incubation at room temperature, the optical density was measured at 620 nanometer using the Perkin Elmer Envision plate reader. A color change can be detected at this wavelength when secreted alkaline phosphatase, which is triggered by IL-12 signaling, is present in the supernatant. […]

| EC50 [1] [nM] | IC50 (ALK5) [nM] | IC50 (JAK signaling) [nM] | Compound | CDH1 (E-Cadherin) gene expression (A549 lung fibroblasts) | expression of the nine genes induced with EMT (CDH2, SNAI1, SNAI2, VIM, SPARC, GALNT6, CTNNB1, TGFB1, MAML3) (A549 lung fibroblasts) |
| --- | --- | --- | --- | --- | --- |
| < 50 | 2 to 5 |  | Cc1cccc2c(Nc3ccnc(Nc4ccc(C5CCOCC5)cc4)c3)cnnc12 [Compound 08, N4-(8-methylcinnolin-4-yl)-N2-[4-(oxan-4-yl)phenyl]pyridine-2,4-diamine] |  |  |
| < 50 | 2 to 5 |  | Cc1cccc2c(Nc3ccnc(Nc4cccc(N5CCOCC5)c4)c3)cnnc12 [Compound 03, N4-(8-methylcinnolin-4-yl)-N2-[3-(morpholin-4-yl)phenyl]pyridine-2,4-diamine] |  |  |
|  |  |  | CC(C)(O)c1cc(Nc2cc(Oc3cn(C4CC4)nc3C3CCOCC3)ccn2)ccn1 [LY3200882, reference compound] | inhibition of downregulation of CDH1 (E-Cadherin) | inhibition of induction of the nine genes that are induced with EMT |
| < 50 | 2 to 5 |  | Cc1cccc2c(Nc3ccnc(Nc4ccc(N5CCN(C)CC5)cc4)c3)cnnc12 [Compound 06, N4-(8-methylcinnolin-4-yl)-N2-[4-(4-methylpiperazin-1-yl)phenyl]pyridine-2,4-diamine] |  |  |
| 50 to 100 | 2 to 5 |  | Cc1cccc2c(Nc3ccnc(Nc4cccc(C5CCOCC5)c4)c3)cnnc12 [Compound 07, N4-(8-methylcinnolin-4-yl)-N2-[3-(oxan-4-yl)phenyl]pyridine-2,4-diamine] |  |  |
|  |  |  | CC(C)c1cnc(-c2cc(Cl)ccc2F)cc1Nc1ccncc1C(=O)NC(CO)CO [PF-06952229, reference compound] | inhibition of downregulation of CDH1 (E-Cadherin) | inhibition of induction of the nine genes that are induced with EMT |
| 50 to 100 | < 5 |  | Cc1nn(CC(F)(F)F)cc1Nc1cc(Nc2cnnc3c(Cl)cccc23)ccn1 [Compound 02, N2-[3-methyl-1-(2,2,2-trifluoroethyl)-1H-pyrazol-4-yl]-N4-(8-chlorocinnolin-4-yl)pyridine-2,4-diamine] |  |  |
|  |  | < 300 | Cc1cnc(Nc2ccc(OCCN3CCCC3)cc2)nc1Nc1cccc(S(=O)(=O)NC(C)(C)C)c1 [Fedratinib, fedratinib] |  |  |
